# In ChEMBL document CHEMBL1949655, “Neomycin-phenolic conjugates: polycationic amphiphiles with broad-spectrum antibacterial activity, low hemolytic activity and weak serum protein binding” (Bioorg Med Chem Lett, 2012):
# Legend:
# Staphylococcus aureus [1] = test: microbe, parasite or virus in culture; format: functional; conditions: ATCC 33592, 24 h
# Description: Antibacterial activity against methicillin-resistant Staphylococcus aureus ATCC 33592 after 24 hrs by macrobroth dilution method in the presence of bovine serum albumin
# [2] = system: Staphylococcus epidermidis; test: microbe, parasite or virus in culture; format: functional; conditions: isolate CAN-ICU61589, 24 h
# Description: Antibacterial activity against methicillin-resistant Staphylococcus epidermidis isolate CAN-ICU 61589 after 24 hrs by macrobroth dilution method
# Enterococcus faecium [3] = test: microbe, parasite or virus in culture; format: functional; conditions: ATCC 27270, 24 h
# Description: Antibacterial activity against Enterococcus faecium ATCC 27270 after 24 hrs by macrobroth dilution method
# Streptococcus pneumoniae [4] = test: microbe, parasite or virus in culture; format: functional; conditions: ATCC 49619, 24 h
# Description: Antibacterial activity against Streptococcus pneumoniae ATCC 49619 after 24 hrs by macrobroth dilution method in the presence of bovine serum albumin
# Pseudomonas aeruginosa [5] = test: microbe, parasite or virus in culture; format: functional; conditions: isolate CAN-ICU 62308, 24 h
# Description: Antibacterial activity against Pseudomonas aeruginosa isolate CAN-ICU 62308 after 24 hrs by macrobroth dilution method in the presence of bovine serum albumin
# Escherichia coli [6] = test: microbe, parasite or virus in culture; format: functional; conditions: isolate CAN-ICU 63074, 24 h
# Description: Antibacterial activity against Escherichia coli isolate CAN-ICU 63074 after 24 hrs by macrobroth dilution method
# Acinetobacter baumannii [7] = test: microbe, parasite or virus in culture; format: functional; conditions: isolate CAN-ICU 63169, 24 h
# Description: Antibacterial activity against Acinetobacter baumannii 63169 isolate CAN-ICU after 24 hrs by macrobroth dilution method
# Staphylococcus aureus [8] = test: microbe, parasite or virus in culture; format: functional; conditions: ATCC 33592, 24 h; remark: listed apart in the source
# Description: Antibacterial activity against methicillin-resistant Staphylococcus aureus ATCC 33592 after 24 hrs by macrobroth dilution method
# Enterococcus faecalis [9] = test: microbe, parasite or virus in culture; format: functional; conditions: ATCC 29212, 24 h
# Description: Antibacterial activity against Enterococcus faecalis ATCC 29212 after 24 hrs by macrobroth dilution method
# Staphylococcus aureus [10] = test: microbe, parasite or virus in culture; format: functional; conditions: ATCC 29213, 24 h
# Description: Antibacterial activity against Staphylococcus aureus ATCC 29213 after 24 hrs by macrobroth dilution method
# Escherichia coli [11] = test: microbe, parasite or virus in culture; format: functional; conditions: isolate CAN-ICU 61714, 24 h
# Description: Antibacterial activity against Escherichia coli isolate CAN-ICU 61714 after 24 hrs by macrobroth dilution method
# Escherichia coli [12] = test: microbe, parasite or virus in culture; format: functional; conditions: ATCC 25922, 24 h
# Description: Antibacterial activity against Escherichia coli ATCC 25922 after 24 hrs by macrobroth dilution method
# Pseudomonas aeruginosa [13] = test: microbe, parasite or virus in culture; format: functional; conditions: ATCC 27853, 24 h
# Description: Antibacterial activity against Pseudomonas aeruginosa ATCC 27853 after 24 hrs by macrobroth dilution method in the presence of bovine serum albumin
# Staphylococcus aureus [14] = test: microbe, parasite or virus in culture; format: functional; conditions: ATCC 29213, 24 h; remark: listed apart in the source
# Description: Antibacterial activity against Staphylococcus aureus ATCC 29213 after 24 hrs by macrobroth dilution method in the presence of bovine serum albumin
# Klebsiella pneumoniae [15] = test: microbe, parasite or virus in culture; format: functional; conditions: ATCC 13883, 24 h
# Description: Antibacterial activity against Klebsiella pneumoniae ATCC 13883 after 24 hrs by macrobroth dilution method
# [16] = system: Staphylococcus epidermidis; test: microbe, parasite or virus in culture; format: functional; conditions: Staphylococcus epidermidis, 81388, 24 h
# Description: Antibacterial activity against methicillin-susceptible Staphylococcus epidermidis 81388 after 24 hrs by macrobroth dilution method in the presence of bovine serum albumin
# [17] = system: Staphylococcus epidermidis; test: microbe, parasite or virus in culture; format: functional, isolate CAN-ICU 61589; conditions: isolate CAN-ICU61589, 24 h
# Description: Antibacterial activity against methicillin-resistant Staphylococcus epidermidis isolate CAN-ICU 61589 after 24 hrs by macrobroth dilution method in the presence of bovine serum albumin
# Escherichia coli [18] = test: microbe, parasite or virus in culture; format: functional; conditions: ATCC 25922, 24 h; remark: listed apart in the source
# Description: Antibacterial activity against Escherichia coli ATCC 25922 after 24 hrs by macrobroth dilution method in the presence of bovine serum albumin
# Escherichia coli [19] = test: microbe, parasite or virus in culture; format: functional; conditions: isolate CAN-ICU 61714, 24 h; remark: listed apart in the source
# Description: Antibacterial activity against Escherichia coli isolate CAN-ICU 61714 after 24 hrs by macrobroth dilution method in the presence of bovine serum albumin
# Enterococcus faecium [20] = test: microbe, parasite or virus in culture; format: functional; conditions: ATCC 27270, 24 h; remark: listed apart in the source
# Description: Antibacterial activity against Enterococcus faecium ATCC 27270 after 24 hrs by macrobroth dilution method in the presence of bovine serum albumin
# Acinetobacter baumannii [21] = test: microbe, parasite or virus in culture; format: functional; conditions: isolate CAN-ICU 63169, 24 h; remark: listed apart in the source
# Description: Antibacterial activity against Acinetobacter baumannii isolate CAN-ICU 63169 after 24 hrs by macrobroth dilution method in the presence of bovine serum albumin
# Pseudomonas aeruginosa [22] = test: microbe, parasite or virus in culture; format: functional; conditions: isolate CAN-ICU 62308, 24 h; remark: listed apart in the source
# Description: Antibacterial activity against Pseudomonas aeruginosa isolate CAN-ICU 62308 after 24 hrs by macrobroth dilution method
# Enterococcus faecalis [23] = test: microbe, parasite or virus in culture; format: functional; conditions: ATCC 29212, 24 h; remark: listed apart in the source
# Description: Antibacterial activity against Enterococcus faecalis ATCC 29212 after 24 hrs by macrobroth dilution method in the presence of bovine serum albumin
# [24] = system: Staphylococcus epidermidis; test: microbe, parasite or virus in culture; format: functional; conditions: Staphylococcus epidermidis, 81388, 24 h; remark: listed apart in the source
# Description: Antibacterial activity against methicillin-susceptible Staphylococcus epidermidis 81388 after 24 hrs by macrobroth dilution method
# [25] = system: Stenotrophomonas maltophilia; test: microbe, parasite or virus in culture; format: functional; conditions: isolate CAN-ICU 62584, 24 h
# Description: Antibacterial activity against Stenotrophomonas maltophilia isolate CAN-ICU 62584 after 24 hrs by macrobroth dilution method in the presence of bovine serum albumin
# Streptococcus pneumoniae [26] = test: microbe, parasite or virus in culture; format: functional; conditions: ATCC 49619, 24 h; remark: listed apart in the source
# Description: Antibacterial activity against Streptococcus pneumoniae ATCC 49619 after 24 hrs by macrobroth dilution method
# Pseudomonas aeruginosa [27] = test: microbe, parasite or virus in culture; format: functional; conditions: ATCC 27853, 24 h; remark: listed apart in the source
# Description: Antibacterial activity against Pseudomonas aeruginosa ATCC 27853 after 24 hrs by macrobroth dilution method
# [28] = system: Stenotrophomonas maltophilia; test: microbe, parasite or virus in culture; format: functional; conditions: isolate CAN-ICU 62584, 24 h; remark: listed apart in the source
# Description: Antibacterial activity against Stenotrophomonas maltophilia isolate CAN-ICU 62584 after 24 hrs by macrobroth dilution method
# Escherichia coli [29] = test: microbe, parasite or virus in culture; format: functional; conditions: isolate CAN-ICU 63074, 24 h; remark: listed apart in the source
# Description: Antibacterial activity against Escherichia coli isolate CAN-ICU 63074 after 24 hrs by macrobroth dilution method in the presence of bovine serum albumin
# Klebsiella pneumoniae [30] = test: microbe, parasite or virus in culture; format: functional; conditions: ATCC 13883, 24 h; remark: listed apart in the source
# Description: Antibacterial activity against Klebsiella pneumoniae ATCC 13883 after 24 hrs by macrobroth dilution method in the presence of bovine serum albumin
# [31] = Toxicity in human erythrocytes assessed as hemolysis at 100 ug/ml by spectrophotometry; conditions: at 100 µg/mL
Structure (SMILES),MIC90 (Staphylococcus aureus [1]),MIC90 [2],MIC90 (Enterococcus faecium [3]),MIC90 (Streptococcus pneumoniae [4]),MIC90 (Pseudomonas aeruginosa [5]),MIC90 (Escherichia coli [6]),MIC90 (Acinetobacter baumannii [7]),MIC90 (Staphylococcus aureus [8]),MIC90 (Enterococcus faecalis [9]),MIC90 (Staphylococcus aureus [10]),MIC90 (Escherichia coli [11]),MIC90 (Escherichia coli [12]),MIC90 (Pseudomonas aeruginosa [13]),MIC90 (Staphylococcus aureus [14]),MIC90 (Klebsiella pneumoniae [15]),MIC90 [16],MIC90 [17],MIC90 (Escherichia coli [18]),MIC90 (Escherichia coli [19]),MIC90 (Enterococcus faecium [20]),also measured
Cc1cc(O)cc(C)c1Cl [CHLOROXYLENOL],512 µg/mL,16 µg/mL,256 µg/mL,> 512 µg/mL,> 512 µg/mL,256 µg/mL,128 µg/mL,64 µg/mL,256 µg/mL,32 µg/mL,256 µg/mL,256 µg/mL,> 512 µg/mL,512 µg/mL,256 µg/mL,512 µg/mL,512 µg/mL,> 512 µg/mL,> 512 µg/mL,> 512 µg/mL,MIC90 (Acinetobacter baumannii [21]): > 512 µg/mL; MIC90 (Pseudomonas aeruginosa [22]): 256 µg/mL; MIC90 (Enterococcus faecalis [23]): > 512 µg/mL; MIC90 [24]: 32 µg/mL; MIC90 [25]: > 512 µg/mL; MIC90 (Streptococcus pneumoniae [26]): 128 µg/mL; MIC90 (Pseudomonas aeruginosa [27]): 512 µg/mL; MIC90 [28]: 128 µg/mL; MIC90 (Escherichia coli [29]): > 512 µg/mL; MIC90 (Klebsiella pneumoniae [30]): > 512 µg/mL
NC[C@@H]1O[C@H](O[C@H]2[C@@H](O)[C@H](O[C@@H]3[C@@H](O)[C@H](N)C[C@H](N)[C@H]3O[C@H]3O[C@H](CN)[C@@H](O)[C@H](O)[C@H]3N)O[C@@H]2CO)[C@H](N)[C@@H](O)[C@@H]1O.O.O=S(=O)(O)O [NEOMYCIN TRISULFATE HYDRATE],128 µg/mL,≤ 0.25 µg/mL,4 µg/mL,8 µg/mL,256 µg/mL,8 µg/mL,64 µg/mL,256 µg/mL,16 µg/mL,1 µg/mL,1 µg/mL,4 µg/mL,256 µg/mL,0.5 µg/mL,0.25 µg/mL,0.5 µg/mL,≤ 0.25 µg/mL,0.25 µg/mL,1 µg/mL,4 µg/mL,MIC90 (Acinetobacter baumannii [21]): 32 µg/mL; MIC90 (Pseudomonas aeruginosa [22]): 256 µg/mL; MIC90 (Enterococcus faecalis [23]): 16 µg/mL; MIC90 [24]: 0.5 µg/mL; MIC90 [25]: > 512 µg/mL; MIC90 (Streptococcus pneumoniae [26]): 32 µg/mL; MIC90 (Pseudomonas aeruginosa [27]): 512 µg/mL; MIC90 [28]: > 512 µg/mL; MIC90 (Escherichia coli [29]): 16 µg/mL; hemolysis at 100 ug/ml [31]: 0.69%; MIC90 (Klebsiella pneumoniae [30]): ≤ 0.25 µg/mL
Oc1cc(Cl)ccc1Oc1ccc(Cl)cc1Cl [TRICLOSAN],1 µg/mL,≤ 0.25 µg/mL,16 µg/mL,256 µg/mL,> 512 µg/mL,1 µg/mL,8 µg/mL,≤ 0.25 µg/mL,8 µg/mL,0.5 µg/mL,1 µg/mL,≤ 0.25 µg/mL,> 512 µg/mL,0.5 µg/mL,1 µg/mL,1 µg/mL,1 µg/mL,16 µg/mL,16 µg/mL,512 µg/mL,MIC90 (Acinetobacter baumannii [21]): 128 µg/mL; MIC90 (Pseudomonas aeruginosa [22]): 64 µg/mL; MIC90 (Enterococcus faecalis [23]): 512 µg/mL; MIC90 [24]: 1 µg/mL; MIC90 [25]: > 512 µg/mL; MIC90 (Streptococcus pneumoniae [26]): 128 µg/mL; MIC90 (Pseudomonas aeruginosa [27]): > 512 µg/mL; MIC90 [28]: 512 µg/mL; MIC90 (Escherichia coli [29]): 64 µg/mL; MIC90 (Klebsiella pneumoniae [30]): 32 µg/mL
